Results from patent publication US6737383B1, “Herbicidal oxadiazolidines” (priority 1999, dated 2004).

Key:
blackgrass = test: Test E blackgrass; assay type: in vivo, Alopecurus myosuroides; conditions: Preemergence
cocklebur = test: Test B pre/postemergence cocklebur; assay type: in vivo, Xanthium strumarium
In short: (§1)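 Herbicidal effect was estimated by eye on a ten-point control scale after plants spent twelve to sixteen days in a greenhouse following soil or foliar treatment. Foliar sprays targeted plants at one to four leaves; all doses were formulated in a non-phytotoxic solvent with surfactant.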

green foxtail = test: Test E green foxtail; assay type: in vivo, Setaria viridis; conditions: Preemergence
bamyardgrass = test: Test B flood test barnyardgrass; assay type: in vivo, Echinochloa crus-galli
In short: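 Plants were grown to the 2-leaf stage before treatment with test chemical, then held in a greenhouse for twelve to sixteen days. Injury was visually rated against untreated controls on a 0–10 scale, where 0 is no effect and 10 is complete control.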

pigweed = test: Test B pre/postemergence pigweed; assay type: in vivo, Amaranthus retroflexus
In short: as §1

winter wheat [1] = test: Test E winter wheat; assay type: in vivo, Triticum aestivum; conditions: Preemergence
sugar beet = test: Test B pre/postemergence sugar beet; assay type: in vivo, Beta vulgaris
In short: as §1

winter barley = test: Test E winter barley; assay type: in vivo, Hordeum vulgare; conditions: Preemergence
winter wheat [2] = test: Test E winter wheat; assay type: in vivo, Triticum aestivum; conditions: Postemergence
In short: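 For postemergence, plants at the 1- to 4-leaf stage, in a 60:40 mix of sandy loam and potting mix, treated with compound formulated in a surfactant-containing non-phytotoxic solvent. Visual assessment versus untreated controls followed roughly 21–28 days in the greenhouse.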

Italian ryegrass = test: Test E Italian ryegrass; assay type: in vivo, Lolium multiflorum; conditions: Preemergence
wild oat = test: Test E wild oat; assay type: in vivo, Avena fatua; conditions: Preemergence
[3] = Rate 500 g/ha, 0 to 100 scale (0 no effect, 100 complete control)
[4] = Rate 1000 g/ha, 0 to 100 scale, 0 no effect, 100 complete control
[5] = Preemergence, Rate 62 g/ha, scale of 0 to 10 where 0 is no effect and 10 is complete control
[6] = Preemergence, Rate 250 g/ha, scale of 0 to 10 where 0 is no effect and 10 is complete control
[7] = Preemergence, Rate 500 g/ha, scale of 0 to 10 where 0 is no effect and 10 is complete control
[8] = Rate 62 g/ha, Postemergence, scale 0 to 10 (0 no effect, 10 complete control)
[9] = Rate 125 g/ha, Postemergence, scale of 0 to 10 where 0 is no effect and 10 is complete control
[10] = Rate 250 g/ha, Postemergence, scale of 0 to 10 where 0 is no effect and 10 is complete control
[11] = Rate 500 g/ha, Postemergence, scale 0 to 10, 0 no effect, 10 complete control
[12] = Rate 125 g/ha, Pre-emergence, flood test species, scale 0 to 10 where 0 is no effect and 10 is complete control
[13] = Rate 250 g/ha, Pre-emergence, flood-test species, scale 0 to 10, 0 is no effect, 10 is complete control
[14] = Rate 500 g/ha, Pre-emergence, flood test species, scale 0 to 10 (0 no effect, 10 complete control)
[15] = Rate 250 g/ha, 0 to 100 scale, 0 no effect, 100 complete control
[16] = Rate 250 g/ha, 0 to 100 scale, 0 is no effect, 100 is complete control
[17] = Rate 1000 g/ha, 0 to 100 scale where 0 is no effect and 100 is complete control
[18] = Rate 500 g/ha, 0 to 100 scale, 0 is no effect, 100 is complete control
[19] = Postemergence, Rate 125 g/ha, scale 0 to 10, 0 is no effect, 10 is complete control

Q: `CCN(C(=O)n1oc(=O)n(C(C)C)c1=O)C1CCCCC1` [Compound 309] was tested. Which “Plant response rating, Blackgrass” value (blackgrass; Rate 250 g/ha, 0 to 100 scale) did it give?
A: Its value is 60.

Q: What about the “Plant response rating, Blackgrass” value (blackgrass; [3]) of the same compound?
A: Its value is 60.

Q: And the “Plant response rating, Blackgrass” value (blackgrass; [4])?
A: Its value is 75.

Q: And the “Cocklebur plant response rating” value (cocklebur; [5])?
A: Its value is 0.

Q: And the “Cocklebur plant response rating (0 to 10 scale)” value (cocklebur; Preemergence, Rate 125 g/ha)?
A: The value was 0.

Q: What about the “Cocklebur plant response rating” value (cocklebur; [6]) of the same compound?
A: The value was 0.

Q: What about the “Cocklebur plant response rating” value (cocklebur; [7]) of the same compound?
A: Its value is 0.

Q: What about the “Cocklebur plant response rating” value (cocklebur; [8]) of the same compound?
A: Its value is 0.

Q: What about the “Cocklebur plant response rating” value (cocklebur; [9]) of the same compound?
A: Its value is 0.

Q: And the “Plant response rating, Cocklebur” value (cocklebur; [10])?
A: The value was 0.

Q: And the “Cocklebur plant response rating” value (cocklebur; [11])?
A: Its value is 0.

Q: And the “Plant response rating, Green foxtail” value (green foxtail; Rate 250 g/ha, 0 to 100 scale)?
A: The value was 65.

Q: And the “Plant response rating, Green foxtail” value (green foxtail; [3])?
A: Its value is 100.

Q: And the “Plant response rating, Green foxtail” value (green foxtail; [4])?
A: The value was 100.

Q: And the “Barnyardgrass plant response rating” value (bamyardgrass; Pre-emergence, Rate 1000 g/ha, scale 0 to 10 (0 no effect, 10 complete control))?
A: Its value is 0.

Q: And the “Barnyardgrass plant response rating” value (bamyardgrass; [12])?
A: The value was 0.

Q: And the “Barnyardgrass plant response rating” value (bamyardgrass; [13])?
A: The value was 0.

Q: What about the “Barnyardgrass plant response rating” value (bamyardgrass; [14]) of the same compound?
A: Its value is 0.

Q: What about the “Redroot pigweed plant response rating” value (pigweed; [5]) of the same compound?
A: The value was 0.

Q: And the “Redroot pigweed plant response rating (0 to 10 scale)” value (pigweed; Preemergence, Rate 125 g/ha)?
A: The value was 0.

Q: And the “Redroot pigweed plant response rating” value (pigweed; [6])?
A: The value was 0.

Q: What about the “Redroot pigweed plant response rating” value (pigweed; [7]) of the same compound?
A: The value was 2.

Q: And the “Redroot pigweed plant response rating” value (pigweed; [8])?
A: The value was 0.

Q: What about the “Redroot pigweed plant response rating” value (pigweed; [9]) of the same compound?
A: The value was 0.

Q: And the “Plant response rating, Redroot pigweed” value (pigweed; [10])?
A: Its value is 0.

Q: What about the “Plant response rating, Wheat (winter)” value (winter wheat [1]; Rate 250 g/ha, 0 to 100 scale) of the same compound?
A: Its value is 70.

Q: And the “Plant response rating, Wheat (winter)” value (winter wheat [1]; [3])?
A: Its value is 65.

Q: What about the “Plant response rating, Wheat (winter)” value (winter wheat [1]; [4]) of the same compound?
A: The value was 70.

Q: And the “Sugarbeets plant response rating” value (sugar beet; [5])?
A: The value was 0.

Q: And the “Sugarbeets plant response rating (0 to 10 scale)” value (sugar beet; Preemergence, Rate 125 g/ha)?
A: The value was 0.

Q: And the “Sugarbeets plant response rating” value (sugar beet; [6])?
A: Its value is 0.

Q: What about the “Sugarbeets plant response rating” value (sugar beet; [7]) of the same compound?
A: Its value is 0.

Q: What about the “Sugarbeets plant response rating” value (sugar beet; [8]) of the same compound?
A: Its value is 0.

Q: And the “Sugarbeets plant response rating” value (sugar beet; [9])?
A: Its value is 0.

Q: And the “Plant response rating, Sugarbeets” value (sugar beet; [10])?
A: Its value is 0.

Q: And the “Plant response rating, Barley (winter)” value (winter barley; [15])?
A: The value was 50.

Q: What about the “Plant response rating, Barley (winter)” value (winter barley; [3]) of the same compound?
A: The value was 20.

Q: What about the “Plant response rating, Barley (winter)” value (winter barley; [4]) of the same compound?
A: The value was 70.

Q: What about the “Plant response rating, Wheat (winter)” value (winter wheat [2]; [16]) of the same compound?
A: Its value is 50.

Q: And the “Plant response rating, Wheat (winter)” value (winter wheat [2]; [17])?
A: Its value is 80.

Q: And the “Plant response rating, Wheat (winter)” value (winter wheat [2]; [18])?
A: The value was 70.

Q: And the “Plant response rating, I. Ryegrass” value (Italian ryegrass; Rate 250 g/ha, 0 to 100 scale)?
A: The value was 50.

Q: And the “Plant response rating, I. Ryegrass” value (Italian ryegrass; [3])?
A: Its value is 60.

Q: And the “Plant response rating, I. Ryegrass” value (Italian ryegrass; [4])?
A: Its value is 70.

Q: What about the “Plant response rating, Wild oat” value (wild oat; Rate 250 g/ha, 0 to 100 scale) of the same compound?
A: Its value is 50.

Q: What about the “Plant response rating, Wild oat” value (wild oat; [3]) of the same compound?
A: The value was 50.

Q: What about the “Plant response rating, Wild oat” value (wild oat; [4]) of the same compound?
A: Its value is 70.

Q: For `CC(C)N(C(=O)n1oc(=O)n(C2CC3CCC2C3)c1=O)c1ccccc1` (centres unmarked) [Compound 328], which “Plant response rating, Blackgrass” value (blackgrass; Rate 250 g/ha, 0 to 100 scale) is on record?
A: Its value is 50.

Q: What about the “Plant response rating, Blackgrass” value (blackgrass; [3]) of the same compound?
A: Its value is 50.

Q: And the “Plant response rating, Blackgrass” value (blackgrass; [4])?
A: Its value is 40.

Q: And the “Plant response rating, Cocklebur” value (cocklebur; [19])?
A: The value was 0.

Q: And the “Cocklebur plant response rating (0 to 10 scale)” value (cocklebur; Preemergence, Rate 125 g/ha)?
A: Its value is 0.

Q: And the “Cocklebur plant response rating” value (cocklebur; [6])?
A: The value was 0.

Q: And the “Cocklebur plant response rating” value (cocklebur; [7])?
A: The value was 0.

Q: And the “Cocklebur plant response rating” value (cocklebur; [8])?
A: Its value is 0.

Q: And the “Plant response rating, Cocklebur” value (cocklebur; [10])?
A: Its value is 0.

Q: What about the “Plant response rating, Cocklebur” value (cocklebur; [11]) of the same compound?
A: Its value is 0.

Q: And the “Plant response rating, Green foxtail” value (green foxtail; Rate 250 g/ha, 0 to 100 scale)?
A: Its value is 100.

Q: What about the “Plant response rating, Green foxtail” value (green foxtail; [3]) of the same compound?
A: Its value is 85.

Q: And the “Plant response rating, Green foxtail” value (green foxtail; [4])?
A: Its value is 100.

Q: And the “Barnyardgrass plant response rating” value (bamyardgrass; Rate 62 g/ha, headed Pre-emergence (flood test species), scale 0 to 10 (0 no effect, 10 complete control))?
A: Its value is 0.

Q: And the “Barnyardgrass plant response rating” value (bamyardgrass; [12])?
A: Its value is 0.

Q: And the “Barnyardgrass plant response rating” value (bamyardgrass; [13])?
A: Its value is 0.

Q: What about the “Barnyardgrass plant response rating” value (bamyardgrass; [14]) of the same compound?
A: Its value is 0.

Q: What about the “Plant response rating, Redroot pigweed” value (pigweed; [19]) of the same compound?
A: Its value is 3.

Q: And the “Redroot pigweed plant response rating” value (pigweed; [5])?
A: Its value is 0.

Q: What about the “Redroot pigweed plant response rating (0 to 10 scale)” value (pigweed; Preemergence, Rate 125 g/ha) of the same compound?
A: Its value is 0.

Q: And the “Redroot pigweed plant response rating” value (pigweed; [6])?
A: Its value is 0.

Q: And the “Redroot pigweed plant response rating” value (pigweed; [7])?
A: Its value is 4.

Q: And the “Redroot pigweed plant response rating” value (pigweed; [8])?
A: The value was 2.

Q: And the “Plant response rating, Redroot pigweed” value (pigweed; [10])?
A: Its value is 3.

Q: What about the “Plant response rating, Redroot pigweed” value (pigweed; [11]) of the same compound?
A: The value was 5.

Q: What about the “Plant response rating, Wheat (winter)” value (winter wheat [1]; Rate 250 g/ha, 0 to 100 scale) of the same compound?
A: The value was 40.

Q: And the “Plant response rating, Wheat (winter)” value (winter wheat [1]; [3])?
A: Its value is 70.

Q: And the “Plant response rating, Wheat (winter)” value (winter wheat [1]; [4])?
A: The value was 70.

Q: And the “Plant response rating, Sugarbeets” value (sugar beet; [19])?
A: Its value is 0.

Q: What about the “Sugarbeets plant response rating” value (sugar beet; [5]) of the same compound?
A: Its value is 0.

Q: And the “Sugarbeets plant response rating (0 to 10 scale)” value (sugar beet; Preemergence, Rate 125 g/ha)?
A: The value was 0.

Q: What about the “Sugarbeets plant response rating” value (sugar beet; [6]) of the same compound?
A: Its value is 0.

Q: What about the “Sugarbeets plant response rating” value (sugar beet; [7]) of the same compound?
A: Its value is 0.

Q: And the “Sugarbeets plant response rating” value (sugar beet; [8])?
A: The value was 0.

Q: What about the “Plant response rating, Sugarbeets” value (sugar beet; [10]) of the same compound?
A: The value was 0.

Q: And the “Plant response rating, Sugarbeets” value (sugar beet; [11])?
A: Its value is 0.

Q: And the “Plant response rating, Barley (winter)” value (winter barley; [15])?
A: The value was 40.

Q: And the “Plant response rating, Barley (winter)” value (winter barley; [3])?
A: The value was 50.

Q: What about the “Plant response rating, Barley (winter)” value (winter barley; [4]) of the same compound?
A: The value was 70.

Q: What about the “Plant response rating, Wheat (winter)” value (winter wheat [2]; [16]) of the same compound?
A: Its value is 65.

Q: And the “Plant response rating, Wheat (winter)” value (winter wheat [2]; [17])?
A: The value was 80.

Q: And the “Plant response rating, Wheat (winter)” value (winter wheat [2]; [18])?
A: Its value is 70.

Q: What about the “Plant response rating, I. Ryegrass” value (Italian ryegrass; Rate 250 g/ha, 0 to 100 scale) of the same compound?
A: Its value is 65.

Q: And the “Plant response rating, I. Ryegrass” value (Italian ryegrass; [3])?
A: The value was 60.

Q: What about the “Plant response rating, I. Ryegrass” value (Italian ryegrass; [4]) of the same compound?
A: The value was 70.

Q: What about the “Plant response rating, Wild oat” value (wild oat; Rate 250 g/ha, 0 to 100 scale) of the same compound?
A: The value was 70.

Q: And the “Plant response rating, Wild oat” value (wild oat; [3])?
A: The value was 50.

Q: And the “Plant response rating, Wild oat” value (wild oat; [4])?
A: The value was 60.
